Laboratory results published in ChEMBL document CHEMBL1131152, “In vitro and in vivo activities of oligodeoxynucleotide-based thrombin inhibitors containing neutral formacetal linkages” (J Med Chem, 1998).

Target: Prothrombin (Homo sapiens) (UniProt P00734)
Assay: Relative prothrombin time was determined as the activity of the test ODN (oligodeoxynucleotide) relative to that of GS-522

SMILES	Relative PT
Cc1cn([C@H]2C[C@H](OCOC[C@H]3O[C@@H](n4cnc5c(=O)nc(N)[nH]c54)C[C@@H]3OP(=O)(O)OC[C@H]3O[C@@H](n4cnc5c(=O)[nH]c(=N)[nH]c54)C[C@@H]3OP(=O)(O)OC[C@H]3O[C@@H](n4cc(C)c(=O)[nH]c4=O)C[C@@H]3OP(=O)(O)OC[C@H]3O[C@@H](n4cc(C)c(=O)[nH]c4=O)C[C@@H]3O[PH](O)(O)OC[C@H]3O[C@@H](n4cnc5c(=O)[nH]c(=N)[nH]c54)C[C@@H]3OP(=O)(O)OC[C@H]3O[C@@H](n4cnc5c(=O)nc(N)[nH]c54)C[C@@H]3O)[C@@H](COP(=O)(O)O[C@H]3C[C@H](n4cnc5c(=O)[nH]c(=N)[nH]c54)O[C@@H]3COCO[C@H]3C[C@H](n4cc(C)c(=O)[nH]c4=O)O[C@@H]3COP(=O)(O)O[C@H]3C[C@H](n4cnc5c(=O)[nH]c(=N)[nH]c54)O[C@@H]3COP(=O)(O)O[C@H]3C[C@H](n4cnc5c(=O)nc(N)[nH]c54)O[C@@H]3COP(=O)(O)O[C@H]3C[C@H](n4cc(C)c(=O)[nH]c4=O)O[C@@H]3COP(=O)(O)O[C@H]3C[C@H](n4cc(C)c(=O)[nH]c4=O)O[C@@H]3COP(=O)(O)O[C@H]3C[C@H](n4cnc5c(=O)nc(N)[nH]c54)O[C@@H]3COP(=O)(O)O[C@H]3C[C@H](n4cnc5c(=O)nc(N)[nH]c54)O[C@@H]3COP(=O)(O)O)O2)c(=O)[nH]c1=O	0.7
Cc1cn([C@H]2C[C@H](OP(=O)(O)OC[C@H]3O[C@@H](n4cc(C)c(=O)[nH]c4=O)C[C@@H]3OP(=O)(O)OC[C@H]3O[C@@H](n4cnc5c(=O)[nH]c(=N)[nH]c54)C[C@@H]3OP(=O)(O)OC[C@H]3O[C@@H](n4cnc5c(=O)nc(N)[nH]c54)C[C@@H]3O)[C@@H](COCO[C@H]3C[C@H](n4cnc5c(=O)[nH]c(=N)[nH]c54)O[C@@H]3COP(=O)(O)O[C@H]3C[C@H](n4cnc5c(=O)nc(N)[nH]c54)O[C@@H]3COP(=O)(O)O[C@H]3C[C@H](n4cc(C)c(=O)[nH]c4=O)O[C@@H]3COP(=O)(O)O[C@H]3C[C@H](n4cnc5c(=O)nc(N)[nH]c54)O[C@@H]3COP(=O)(O)O[C@H]3C[C@H](n4cc(C)c(=O)[nH]c4=O)O[C@@H]3COP(=O)(O)O[C@H]3C[C@H](n4cnc5c(=O)[nH]c(=N)[nH]c54)O[C@@H]3COP(=O)(O)O[C@H]3C[C@H](n4cnc5c(=O)nc(N)[nH]c54)O[C@@H]3COP(=O)(O)O[C@H]3C[C@H](n4cc(C)c(=O)[nH]c4=O)O[C@@H]3COP(=O)(O)O[C@H]3C[C@H](n4cc(C)c(=O)[nH]c4=O)O[C@@H]3COP(=O)(O)O[C@H]3C[C@H](n4cnc5c(=O)[nH]c(=N)[nH]c54)O[C@@H]3COP(=O)(O)O[C@H]3C[C@H](n4cnc5c(=O)nc(N)[nH]c54)O[C@@H]3COP(=O)(O)O)O2)c(=O)[nH]c1=O	0.8
Cc1cn([C@H]2C[C@H](OCOC[C@H]3O[C@@H](n4cnc5c(=O)[nH]c(=N)[nH]c54)C[C@@H]3OP(=O)(O)OC[C@H]3O[C@@H](n4cnc5c(=O)nc(N)[nH]c54)C[C@@H]3O)[C@@H](COP(=O)(O)O[C@H]3C[C@H](n4cc(C)c(=O)[nH]c4=O)O[C@@H]3COP(=O)(O)O[C@H]3C[C@H](n4cnc5c(=O)[nH]c(=N)[nH]c54)O[C@@H]3COP(=O)(O)O[C@H]3C[C@H](n4cnc5c(=O)nc(N)[nH]c54)O[C@@H]3COP(=O)(O)O[C@H]3C[C@H](n4cc(C)c(=O)[nH]c4=O)O[C@@H]3COP(=O)(O)O[C@H]3C[C@H](n4cnc5c(=O)[nH]c(=N)[nH]c54)O[C@@H]3COP(=O)(O)O[C@H]3C[C@H](n4cc(C)c(=O)[nH]c4=O)O[C@@H]3COP(=O)(O)O[C@H]3C[C@H](n4cnc5c(=O)[nH]c(=N)[nH]c54)O[C@@H]3COP(=O)(O)O[C@H]3C[C@H](n4cnc5c(=O)nc(N)[nH]c54)O[C@@H]3COP(=O)(O)O[C@H]3C[C@H](n4cc(C)c(=O)[nH]c4=O)O[C@@H]3COP(=O)(O)O[C@H]3C[C@H](n4cc(C)c(=O)[nH]c4=O)O[C@@H]3COP(=O)(O)O[C@H]3C[C@H](n4cnc5c(=O)nc(N)[nH]c54)O[C@@H]3COP(=O)(O)O[C@H]3C[C@H](n4cnc5c(=O)nc(N)[nH]c54)O[C@@H]3COP(=O)(O)O)O2)c(=O)[nH]c1=O	0.6

Now from value to compound:

Relative PT	SMILES
1.1	Cc1cn([C@H]2C[C@H](OCOC[C@H]3O[C@@H](n4cc(C)c(=O)[nH]c4=O)C[C@@H]3OP(=O)(O)OC[C@H]3O[C@@H](n4cnc5c(=O)nc(N)[nH]c54)C[C@@H]3OP(=O)(O)OC[C@H]3O[C@@H](n4cnc5c(=O)[nH]c(=N)[nH]c54)C[C@@H]3OP(=O)(O)OC[C@H]3O[C@@H](n4cc(C)c(=O)[nH]c4=O)C[C@@H]3OP(=O)(O)OC[C@H]3O[C@@H](n4cnc5c(=O)[nH]c(=N)[nH]c54)C[C@@H]3OP(=O)(O)OC[C@H]3O[C@@H](n4cc(C)c(=O)[nH]c4=O)C[C@@H]3OP(=O)(O)OC[C@H]3O[C@@H](n4cnc5c(=O)nc(N)[nH]c54)C[C@@H]3OP(=O)(O)OC[C@H]3O[C@@H](n4cnc5c(=O)[nH]c(=N)[nH]c54)C[C@@H]3OP(=O)(O)OC[C@H]3O[C@@H](n4cc(C)c(=O)[nH]c4=O)C[C@@H]3OCOC[C@H]3O[C@@H](n4cc(C)c(=O)[nH]c4=O)C[C@@H]3OP(=O)(O)OC[C@H]3O[C@@H](n4cnc5c(=O)[nH]c(=N)[nH]c54)C[C@@H]3OP(=O)(O)OC[C@H]3O[C@@H](n4cnc5c(=O)nc(N)[nH]c54)C[C@@H]3O)[C@@H](COP(=O)(O)O[C@H]3C[C@H](n4cnc5c(=O)[nH]c(=N)[nH]c54)O[C@@H]3COP(=O)(O)O[C@H]3C[C@H](n4cnc5c(=O)nc(N)[nH]c54)O[C@@H]3COP(=O)(O)O)O2)c(=O)[nH]c1=O
0.8	Cc1cn([C@H]2C[C@H](OP(=O)(O)OC[C@H]3O[C@@H](n4cnc5c(=O)nc(N)[nH]c54)C[C@@H]3OP(=O)(O)OC[C@H]3O[C@@H](n4cnc5c(=O)[nH]c(=N)[nH]c54)C[C@@H]3OP(=O)(O)OC[C@H]3O[C@@H](n4cc(C)c(=O)[nH]c4=O)C[C@@H]3OP(=O)(O)OC[C@H]3O[C@@H](n4cnc5c(=O)nc(N)[nH]c54)C[C@@H]3OP(=O)(O)OC[C@H]3O[C@@H](n4cc(C)c(=O)[nH]c4=O)C[C@@H]3OP(=O)(O)OC[C@H]3O[C@@H](n4cnc5c(=O)nc(N)[nH]c54)C[C@@H]3OCOC[C@H]3O[C@@H](n4cnc5c(=O)[nH]c(=N)[nH]c54)C[C@@H]3OP(=O)(O)OC[C@H]3O[C@@H](n4cc(C)c(=O)[nH]c4=O)C[C@@H]3OP(=O)(O)OC[C@H]3O[C@@H](n4cc(C)c(=O)[nH]c4=O)C[C@@H]3OP(=O)(O)OC[C@H]3O[C@@H](n4cnc5c(=O)[nH]c(=N)[nH]c54)C[C@@H]3OP(=O)(O)OC[C@H]3O[C@@H](n4cnc5c(=O)nc(N)[nH]c54)C[C@@H]3O)[C@@H](COP(=O)(O)O[C@H]3C[C@H](n4cc(C)c(=O)[nH]c4=O)O[C@@H]3COP(=O)(O)O[C@H]3C[C@H](n4cnc5c(=O)[nH]c(=N)[nH]c54)O[C@@H]3COP(=O)(O)O[C@H]3C[C@H](n4cnc5c(=O)nc(N)[nH]c54)O[C@@H]3COP(=O)(O)O)O2)c(=O)[nH]c1=O
0.4	Cc1cn([C@H]2C[C@H](OCOC[C@H]3O[C@@H](n4cnc5c(=O)[nH]c(=N)[nH]c54)C[C@@H]3OP(=O)(O)OC[C@H]3O[C@@H](n4cnc5c(=O)nc(N)[nH]c54)C[C@@H]3O)[C@@H](COP(=O)(O)O[C@H]3C[C@H](n4cc(C)c(=O)[nH]c4=O)O[C@@H]3COP(=O)(O)O[C@H]3C[C@H](n4cnc5c(=O)[nH]c(=N)[nH]c54)O[C@@H]3COP(=O)(O)O[C@H]3C[C@H](n4cnc5c(=O)nc(N)[nH]c54)O[C@@H]3COCO[C@H]3C[C@H](n4cc(C)c(=O)[nH]c4=O)O[C@@H]3COP(=O)(O)O[C@H]3C[C@H](n4cnc5c(=O)[nH]c(=N)[nH]c54)O[C@@H]3COP(=O)(O)O[C@H]3C[C@H](n4cc(C)c(=O)[nH]c4=O)O[C@@H]3COP(=O)(O)O[C@H]3C[C@H](n4cnc5c(=O)[nH]c(=N)[nH]c54)O[C@@H]3COP(=O)(O)O[C@H]3C[C@H](n4cnc5c(=O)nc(N)[nH]c54)O[C@@H]3COP(=O)(O)O[C@H]3C[C@H](n4cc(C)c(=O)[nH]c4=O)O[C@@H]3COP(=O)(O)O[C@H]3C[C@H](n4cc(C)c(=O)[nH]c4=O)O[C@@H]3COP(=O)(O)O[C@H]3C[C@H](n4cnc5c(=O)nc(N)[nH]c54)O[C@@H]3COP(=O)(O)O[C@H]3C[C@H](n4cnc5c(=O)[nH]c(=N)[nH]c54)O[C@@H]3COP(=O)(O)O)O2)c(=O)[nH]c1=O
1.1	Cc1cn([C@H]2C[C@H](OP(=O)(O)OC[C@H]3O[C@@H](n4cnc5c(=O)nc(N)[nH]c54)C[C@@H]3OP(=O)(O)OC[C@H]3O[C@@H](n4cnc5c(=O)[nH]c(=N)[nH]c54)C[C@@H]3OP(=O)(O)OC[C@H]3O[C@@H](n4cc(C)c(=O)[nH]c4=O)C[C@@H]3OP(=O)(O)OC[C@H]3O[C@@H](n4cc(C)c(=O)[nH]c4=O)C[C@@H]3OP(=O)(O)OC[C@H]3O[C@@H](n4cnc5c(=O)[nH]c(=N)[nH]c54)C[C@@H]3OP(=O)(O)OC[C@H]3O[C@@H](n4cnc5c(=O)nc(N)[nH]c54)C[C@@H]3O)[C@@H](COCO[C@H]3C[C@H](n4cnc5c(=O)nc(N)[nH]c54)O[C@@H]3COP(=O)(O)O[C@H]3C[C@H](n4cc(C)c(=O)[nH]c4=O)O[C@@H]3COP(=O)(O)O[C@H]3C[C@H](n4cnc5c(=O)[nH]c(=N)[nH]c54)O[C@@H]3COP(=O)(O)O[C@H]3C[C@H](n4cnc5c(=O)nc(N)[nH]c54)O[C@@H]3COP(=O)(O)O[C@H]3C[C@H](n4cc(C)c(=O)[nH]c4=O)O[C@@H]3COP(=O)(O)O[C@H]3C[C@H](n4cc(C)c(=O)[nH]c4=O)O[C@@H]3COP(=O)(O)O[C@H]3C[C@H](n4cnc5c(=O)nc(N)[nH]c54)O[C@@H]3COP(=O)(O)O[C@H]3C[C@H](n4cnc5c(=O)nc(N)[nH]c54)O[C@@H]3COP(=O)(O)O)O2)c(=O)[nH]c1=O
